Results published in PubChem BioAssay AID1329 (NMMLSC, 2008).
Active and inactive are the calls of the source. No rule for the calls is given here.

The compounds below were run against Induced myeloid leukemia cell differentiation protein Mcl-1 (Homo sapiens) (UniProt Q07820) (assay: modulators of Bim peptide binding to Mcl-1, dose response, biochemical, bead-based flow cytometry, multiplexed, human (AID 1329)). Settings: Bim peptide-Mcl-1 binding, MCF.
Induced myeloid leukemia cell differentiation protein Mcl-1 (Homo sapiens), sequence (Q07820 whole entry, looked up): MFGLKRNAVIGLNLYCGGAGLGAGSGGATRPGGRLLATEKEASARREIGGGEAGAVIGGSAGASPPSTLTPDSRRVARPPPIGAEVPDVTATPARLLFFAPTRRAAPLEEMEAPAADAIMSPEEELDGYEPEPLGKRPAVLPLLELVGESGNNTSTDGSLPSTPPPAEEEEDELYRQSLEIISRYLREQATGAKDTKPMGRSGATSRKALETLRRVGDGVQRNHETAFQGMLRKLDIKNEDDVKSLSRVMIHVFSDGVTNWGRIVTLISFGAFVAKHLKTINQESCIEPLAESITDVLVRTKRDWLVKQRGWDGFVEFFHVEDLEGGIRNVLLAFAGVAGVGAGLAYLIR

Row | Compound | percent span
1 | COc1cc(N=c2ssnc2Cl)c(OC)cc1Cl | inactive
2 | Cc1ccc(-c2nnc(Cc3ccc(Cl)cc3)o2)cc1 | inactive
3 | CCC(=O)NC(c1ccc(C)cc1)c1cc([N+](=O)[O-])c2cccnc2c1O (stereo not given) | inactive
4 | CCSc1nnc(NC(=O)c2c(-c3ccccc3Cl)noc2C)s1 | inactive
5 | Cc1c(N=C2C=CC(=O)c3ccccc32)c(=O)n(-c2ccccc2)n1C | inactive
6 | COc1ccc(S(=O)(=O)NCCSc2ccc(Cl)cc2)cc1OC | inactive
7 | CCNCc1cc(Br)c(OCC(=O)Nc2ccccc2)c(OC)c1 | inactive
8 | CN=C(NC1CCCCC1)c1ccc(Cl)cc1 | inactive
9 | COc1ccc(C(=O)NC(=S)N2CCNC(=O)C2)cc1Br | inactive
10 | CC(C(=O)Nc1ccc([N+](=O)[O-])cc1)N1CCN(C/C=C/c2ccccc2)CC1 (stereo not given) | inactive
11 | CC(C)CN1C(=O)/C(=C/c2ccco2)NC1=S | inactive
12 | COc1ccc(-c2csc(NC(=O)/C(N=Nc3ccccc3)=C(\C)O)n2)cc1 | inactive
13 | CCOC(=O)C1=C(CP(=O)(c2ccccc2)c2ccccc2)NC(=O)NC1c1ccc(OC)cc1 (stereo not given) | inactive
14 | Cc1[nH]n(C(N)=S)c(=O)c1N=Nc1ccc(S(=O)(=O)N2CCCCCC2)cc1 | inactive
15 | COc1ccc(-c2noc(COc3ccc4c(c3)OCO4)n2)cc1OC | inactive
16 | COc1ccccc1NC(=O)CSc1ncn(-c2ccccc2)n1 | inactive
17 | CCN(CC)c1ccc(NC(=O)c2ccccc2Br)cc1S(=O)(=O)Nc1ccccc1OC | inactive
18 | COc1cc(CNc2ccc3[nH]c(=O)[nH]c3c2)cc(Br)c1OCC(=O)NC(C)(C)C | inactive
19 | Cc1cccc(/C=N/N(CCO)C2=NS(=O)(=O)c3ccccc32)c1 | inactive
20 | COc1ccc(COC(=O)NNC(=O)c2ccccc2Cl)cc1 | inactive
21 | COc1ccc(NC(=O)COc2ncnc3ccccc23)cc1S(=O)(=O)N1CCOCC1 | inactive
22 | O=C(CSc1ccc(-c2ccccc2)nn1)NCc1ccco1 | inactive
23 | CCc1nnc(NS(=O)(=O)c2ccc(N=CC3=C(O)CC(C)(C)CC3=O)cc2)s1 | inactive
24 | Cc1ccc(/C=N/N(C)C2=NS(=O)(=O)c3ccccc32)o1 | inactive
25 | COc1ccc2cc(CN(CCc3ccccc3)Cc3nnnn3CC3CCCO3)c(=O)[nH]c2c1 (stereo not given) | inactive
26 | O=C(Nc1cccc(-c2ccc3nncn3n2)c1)c1ccco1 | inactive
27 | Clc1ccc2c(N/N=C/c3ccc(Br)cc3)ccnc2c1 | inactive

Row | Compound | percent span
28 | COc1cc(NC(=O)c2ccc3c(c2)OCO3)ccc1NC(=O)c1ccco1 | inactive
29 | c1ccc2c(N3CCOCC3)nc(N3CCOCC3)nc2c1 | inactive
30 | COc1cccc(/C=N/NC(=O)c2cc3cc([N+](=O)[O-])ccc3s2)c1O | inactive
31 | CNc1ccccc(C(=O)/C=C/c2ccccc2OC)c1=O | inactive
32 | COc1ccc(C2C(C#N)=C(C)NC3=C2S(=O)(=O)c2ccccc23)cc1 (stereo not given) | inactive
33 | O=C(O)CCN1C(=O)/C(=C\c2ccc(-c3nc4ccccc4s3)o2)SC1=S | inactive
34 | CCOC(=O)CCCNC(=O)c1cncc(O)c1 | inactive
35 | Cc1ccc(C(=O)N/N=C2/NC(=O)CC(C(=O)Nc3ccccc3)S2)cc1 (stereo not given) | inactive
36 | Cc1ccc(S(=O)(=O)N(C)CC(=O)N2CCc3ccccc32)cc1 | inactive
37 | COC(=O)CCC(=O)Nc1sc(Cc2ccccc2)c(C)c1C(N)=O | inactive
38 | O=C1C(Cl)=C(Nc2ccccc2O)C(=O)N1c1ccccc1 | inactive
39 | O=C(O)/C=C/C(=O)NNC(=O)c1ccc(Br)cc1 | inactive
40 | S=C(Nc1ccc(N2CCOCC2)cc1)Nc1ccc2nc(-c3ccco3)c(-c3ccco3)nc2c1 | inactive
41 | COc1cccc(C(=O)/C=C/Nc2ccc(S(=O)(=O)Nc3onc(C)c3C)cc2)c1 | inactive
42 | CN(CCCOc1ccccc1Br)Cc1ccccc1 | inactive
43 | C/C(=N\NC(=O)Cn1nc(C)c([N+](=O)[O-])c1C)c1ccc(O)cc1 | inactive
44 | O=C1NC(=O)C2(Cc3c(nc4ccccn4c3=O)N3CCCCCC32)C(=O)N1Cc1ccccc1 (stereo not given) | inactive
45 | CNC(CC(=O)c1ccc([N+](=O)[O-])cc1)C(Cl)(Cl)Cl (stereo not given) | inactive
46 | COCCNC(=O)CN1CCC(NC(=O)Nc2ccccc2)CC1 | inactive
47 | O=C(C1=NN(c2ccccc2)C2C(=O)N(c3ccccc3)C(=O)C12)c1ccccc1 (stereo not given) | inactive
48 | Cc1ccc(/C=C2/NC(=O)N(Cc3ccccc3)C2=O)o1 | inactive
49 | COc1ccc(C2(NC(C)=O)CCN(C(=O)c3ccco3)CC2)cc1 | inactive
50 | NNC(=O)COc1ccccc1F | inactive
51 | CCOc1ccccc1CNc1ccc(O)cc1 | inactive
52 | C=CCN1C(=O)/C(=C/c2ccsc2)SC1=S | inactive
53 | COc1cccc2c(SCC(=O)N/N=C/c3ccc(O)c(O)c3)cc(C)nc12 | inactive
54 | CCCCC(=O)Nc1ccc(C(=O)N2CCC(C(=O)OCC)CC2)cc1 | inactive

Row | Compound | percent span
55 | COc1ccc(CC(=O)Nc2ccc3nc(C)sc3c2)cc1OC | inactive
56 | CNc1ccc(Br)cc(C(=O)/C=C/c2cccc(OC)c2)c1=O | inactive
57 | O=c1c2c(-c3ccccc3)csc2nc2c3ccccc3c(NCCN3CCOCC3)nn12 | inactive
58 | N/C(=N\OC(=O)CCC1CCCC1)c1ccncc1 | inactive
59 | OCCN1CCN(CCCc2c3c(cc4c2CCC4)CCC3)CC1 | inactive
60 | Cc1cc2nc(/C(C#N)=C/c3ccncc3)[nH]c2cc1C | inactive
61 | COc1ccc2nc(-c3ccco3)c(-c3ccco3)nc2c1 | inactive
62 | CCn1c(SCC(=O)Nc2ccccc2-c2ccccc2)nnc1-c1ccoc1C | inactive
63 | Cn1c(N)c(C(=O)COC(=O)c2cncc(Br)c2)c(=O)n(C)c1=O | inactive
64 | COc1ccc(NC(=O)c2ccco2)cc1NC(=O)c1ccco1 | inactive
65 | O=C(Cc1ccccc1)N/N=C/c1cccn1-c1ccc([N+](=O)[O-])cc1 | inactive
66 | O=C(Nc1ccc2nc(-c3ccco3)c(-c3ccco3)nc2c1)NC1CC1 | inactive
67 | CCCC(=O)OCCNc1cc(Sc2nccn2C)c2nonc2c1[N+](=O)[O-] | inactive
68 | CCOC(=O)c1nn(-c2ccccc2)c(C#N)c1N | inactive
69 | Cc1ccc2c(c1)c(C)c(C)n2CC(O)Cn1nc(C)c(Br)c1C (stereo not given) | inactive
70 | CNc1ccc(Br)cc(C(=O)/C=C/c2cccc(OC)c2OC)c1=O | inactive
71 | Cc1ccccc1-n1nc(SCC(=O)O)sc1=S | inactive
72 | CNc1ccc(Br)cc(C(=O)/C=C/c2ccc(OC)cc2OC)c1=O | inactive
73 | CSc1ccccc1NC(=O)CN(C)CC(=O)Nc1ccc(N2CCOCC2)cc1 | inactive
74 | Cc1ccc(NC2=C(NC(=O)c3ccccc3)C(=O)c3ccccc3C2=O)cc1Cl | inactive
75 | CCOc1cc(S(=O)(=O)Nc2ccccn2)ccc1F | inactive
76 | O=C(OCc1cnc(Cl)s1)c1cccc(Cl)c1Cl | inactive
77 | Cc1nn(-c2ccc(Cl)cc2)c(Cl)c1/C=C(\C#N)C(N)=O | inactive
78 | CS(=O)(=O)NN1C(=O)c2ccccc2NC1c1cccc2cccnc12 (stereo not given) | inactive
79 | CN(CCO)c1cc(Sc2nc3ccccc3s2)c2nonc2c1[N+](=O)[O-] | inactive
80 | Cc1ccc(/C=C2\CCCC3=C2NC(=S)NC3c2ccc(C)cc2)cc1 (stereo not given) | inactive
81 | CC1CC2=C(NC(=S)NC2c2cccc(F)c2)/C(=C/c2cccc(F)c2)C1 (stereo not given) | inactive

Row | Compound | percent span
82 | Cc1cc(N2CCN(C)CC2)nc2ccc(NC(=S)N3CCCCC3)cc12 | inactive
83 | Cc1cc(C)c[n+](-c2nc3ccccc3nc2C(=C=[N-])C#N)c1 | inactive
84 | Cc1[nH]c2ccccc2c1C(=O)COC(=O)c1c(-c2c(F)cccc2Cl)noc1C | inactive
85 | COc1ccc(Cl)cc1-n1c(C)cc(C=O)c1C | inactive
86 | c1ccc(-c2nc(N3CCCCCC3)c3ccccc3n2)nc1 | inactive
87 | CC1CC2=C(NC(=S)NC2c2ccccc2F)/C(=C/c2ccccc2F)C1 (stereo not given) | inactive
88 | Cc1cc(-c2csc(N)n2)c(C)n1CCc1ccccc1 | inactive
89 | CCCCN(C(=O)CCC(=O)Nc1cc(C)on1)C(C(=O)NC(C)(C)C)c1cccc(OC)c1OC (stereo not given) | inactive
90 | Cc1ccc(-c2cc(-c3ccc(C)o3)nc(N)c2C#N)cc1 | inactive
91 | Cc1ccc(Nc2nc(C)cs2)cc1 | inactive
92 | O=C(NCc1ccco1)C1CC2CCC1C2 (stereo not given) | inactive
93 | c1ccc(-c2nc(N3CCCCC3)nc3ccccc23)cc1 | inactive
94 | O=C(NCCc1ccccc1)c1ccc2nc(-c3ccco3)c(-c3ccco3)nc2c1 | inactive
95 | Cc1ccc(C)c(NC(=O)C(=O)NCc2ccccn2)c1 | inactive
96 | COC(=O)CCC(=O)Nc1sc(C)c(C)c1C(N)=O | inactive
97 | COc1ccc(OCCNC(=O)c2ccccc2OCC(=O)N2CCCCC2)cc1 | inactive
98 | Cc1cnnn1-c1ccc(C(=O)CCl)cc1 | inactive
99 | CC(=O)OCCCNc1cc(Sc2nc3ccccc3s2)c2nonc2c1[N+](=O)[O-] | inactive
100 | C/C(=N\NC(=O)COc1ccc(C(C)(C)C)cc1)c1ccc2c(c1)OCCO2 | inactive
101 | Cc1ccc(-c2ccc(/C=C3\SC(N4CCOCC4)=NC3=O)o2)cc1 | inactive
102 | CCN(CC)C(=O)COC(=O)c1cc(-c2ccco2)nc2ccccc12 | inactive
103 | O=C1NCCN1C(=O)N(c1ccccc1)c1ccccc1 | inactive
104 | O=C(COCC(=O)NCc1ccccc1)NCc1ccccc1 | inactive
105 | CCN=c1scc(C)n1/N=C/c1ccc(O)c(O)c1O | inactive
